# Laboratory results published in PMC4771985, “Angiotensin I Converting Enzyme Inhibitory Peptides Derived from Phycobiliproteins of Dulse Palmaria palmata” (Marine Drugs, 2016).
# Ends that are not written are not given here. Peptide text beside a SMILES is read from it.
# Target: T1, ACE from rabbit lung (Oryctolagus cuniculus, UniProt P12822)
# T1 construct: ACE from rabbit lung was purchased from Sigma Chemical Co; purchased Sigma Chemical Co. (St. Louis, MO, USA); host or cells: rabbit lung (tissue-derived)
# T1 sequence (P12822 34-1310): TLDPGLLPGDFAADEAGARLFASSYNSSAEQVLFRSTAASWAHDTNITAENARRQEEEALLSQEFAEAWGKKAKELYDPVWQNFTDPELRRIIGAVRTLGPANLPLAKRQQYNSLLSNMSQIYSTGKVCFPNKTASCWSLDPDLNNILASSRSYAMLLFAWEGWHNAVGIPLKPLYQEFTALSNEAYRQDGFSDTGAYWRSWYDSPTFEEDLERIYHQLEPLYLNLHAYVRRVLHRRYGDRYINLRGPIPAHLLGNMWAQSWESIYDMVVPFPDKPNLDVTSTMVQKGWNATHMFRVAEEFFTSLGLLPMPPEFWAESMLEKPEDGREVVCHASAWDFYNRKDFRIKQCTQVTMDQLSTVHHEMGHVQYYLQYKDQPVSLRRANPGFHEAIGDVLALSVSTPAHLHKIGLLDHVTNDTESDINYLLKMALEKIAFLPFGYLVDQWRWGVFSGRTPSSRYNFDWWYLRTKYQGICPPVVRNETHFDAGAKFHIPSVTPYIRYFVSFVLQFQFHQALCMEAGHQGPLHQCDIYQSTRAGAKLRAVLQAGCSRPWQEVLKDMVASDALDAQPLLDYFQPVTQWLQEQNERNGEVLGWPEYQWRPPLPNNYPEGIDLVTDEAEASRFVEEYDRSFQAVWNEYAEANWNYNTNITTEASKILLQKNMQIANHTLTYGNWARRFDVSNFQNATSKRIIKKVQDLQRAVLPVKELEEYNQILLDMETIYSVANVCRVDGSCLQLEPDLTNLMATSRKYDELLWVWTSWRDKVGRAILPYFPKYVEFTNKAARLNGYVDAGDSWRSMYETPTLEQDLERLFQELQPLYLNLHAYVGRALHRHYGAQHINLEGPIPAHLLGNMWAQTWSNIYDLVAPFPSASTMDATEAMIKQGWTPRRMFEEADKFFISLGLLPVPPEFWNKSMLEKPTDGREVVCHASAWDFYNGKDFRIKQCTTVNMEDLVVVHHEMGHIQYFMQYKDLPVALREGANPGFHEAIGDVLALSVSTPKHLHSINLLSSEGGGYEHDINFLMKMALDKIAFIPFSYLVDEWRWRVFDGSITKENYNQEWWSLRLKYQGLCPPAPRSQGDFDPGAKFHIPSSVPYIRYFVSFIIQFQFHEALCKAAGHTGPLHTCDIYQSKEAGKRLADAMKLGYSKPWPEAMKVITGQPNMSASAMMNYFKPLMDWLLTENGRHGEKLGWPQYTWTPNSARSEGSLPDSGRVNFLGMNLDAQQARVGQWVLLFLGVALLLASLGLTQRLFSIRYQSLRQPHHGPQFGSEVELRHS
# Assay: ACE inhibitory assay (Hip-His-Leu)
# Type: biochemical
# Settings: IC50 defined as absolute quantity of peptide to inhibit 50% of 1.0 U ACE; pre-incubated 37 °C 5 min; Hip-His-Leu 12.5 mM, 0.1 M sodium borate, 400 mM NaCl, pH 8.3, 37 °C, 1 h; hippuric acid absorbance at 228 nm; read-out: IC50 Value, ACE inhibitory activity of synthetic peptides
# Text: ACE from rabbit lung was purchased from Sigma Chemical Co. (St. Louis, MO, USA). Hyppuryl-L-histidyl-L-leucine (Hip-His-Leu), thermolysin (EC 3.4.24.27) from Bacillus thermoproteolyticus, pepsin (EC 3.4.23.1) from porcine stomach, trypsin (EC 3.4.21.4) from bovine pancreas and chymotrypsin (EC 3.4.21.1) from bovine pancreas were purchased from Wako Pure Chemical (Osaka, Japan). Synthetic peptides (purity: 99.4%–99.8%) were purchased from Medical Biological Laboratories Co. (Nagoya, Japan). All other reagents were purchased from Wako Pure Chemical Industries (Osaka, Japan).
# ACE inhibitory assay was carried out according to the method of Cheng and Cushman with some modifications. Fifteen microliters of sample solution (5.0 mg/mL) were added to 30 μL of ACE (0.2 units/mL), and the mixture was pre-incubated at 37 °C for 5 min. Thirty microliters of Hip-His-Leu solution (12.5 mM in 0.1 M sodium borate buffer containing 400 mM NaCl at pH 8.3) were added to the mixture. After incubation at 37 °C for 1 h, the reaction was stopped by adding 75 μL of 1.0 M HCl. The released hippuric acid was extracted with 450 μL of ethyl acetate. Four hundred microliters of the upper layer were evaporated, and then the hippuric acid was dissolved in 1.5 mL of distilled water. The absorbance at 228 nm of the solution was measured by a spectrophotometer. The inhibition was calculated from the equation [1 − (As − Asb)/(Ac − Acb)] × 100, where Ac is the absorbance of the buffer, Acb is the absorbance when the stop solution was added to the buffer before the reaction, As is the absorbance of the sample, and Asb is the absorbance when the stop solution was added to the sample before the reaction. In this study, we defined the IC50 as an absolute quantity of peptide to inhibit 50% of 1.0 U ACE.
row,Compound,IC50
1,CC(C)C[C@H](N)C(=O)N[C@@H](CC(=O)O)C(=O)N[C@@H](Cc1ccc(O)cc1)C(=O)O [LDY] (H-Leu-Asp-Tyr-OH),6100 nM
2,CC(C)C[C@H](N)C(=O)N[C@@H](CCCNC(=N)N)C(=O)N[C@@H](Cc1ccc(O)cc1)C(=O)O [LRY] (H-Leu-Arg-Tyr-OH),44 nM
3,CC(C)[C@H](N)C(=O)N[C@@H](Cc1ccc(O)cc1)C(=O)N[C@@H](CCCNC(=N)N)C(=O)N[C@H](C(=O)O)[C@@H](C)O [VYRT] (H-VYRT-OH),140 nM
4,FEQDWAS [FEQDWAS],> 2800 nM
